# Results as given in article PMC6212544, “Identification and Characterization of Novel CFTR Potentiators” (Frontiers in Pharmacology, 2018).
# Columns and labels:
# [1] = biological target: T1, F508del CFTR (Homo sapiens, UniProt P13569, DEL508-508); test: TECC on corrector rescued F508del/F508del primary HBE cells; format: cell-based; parameters: endogenous in cells; host or cells: primary human bronchial epithelial cells, F508del/F508del donors (McGill University; University of North Carolina)
# T1 sequence (P13569 with tags, fused parts or gaps DEL508-508): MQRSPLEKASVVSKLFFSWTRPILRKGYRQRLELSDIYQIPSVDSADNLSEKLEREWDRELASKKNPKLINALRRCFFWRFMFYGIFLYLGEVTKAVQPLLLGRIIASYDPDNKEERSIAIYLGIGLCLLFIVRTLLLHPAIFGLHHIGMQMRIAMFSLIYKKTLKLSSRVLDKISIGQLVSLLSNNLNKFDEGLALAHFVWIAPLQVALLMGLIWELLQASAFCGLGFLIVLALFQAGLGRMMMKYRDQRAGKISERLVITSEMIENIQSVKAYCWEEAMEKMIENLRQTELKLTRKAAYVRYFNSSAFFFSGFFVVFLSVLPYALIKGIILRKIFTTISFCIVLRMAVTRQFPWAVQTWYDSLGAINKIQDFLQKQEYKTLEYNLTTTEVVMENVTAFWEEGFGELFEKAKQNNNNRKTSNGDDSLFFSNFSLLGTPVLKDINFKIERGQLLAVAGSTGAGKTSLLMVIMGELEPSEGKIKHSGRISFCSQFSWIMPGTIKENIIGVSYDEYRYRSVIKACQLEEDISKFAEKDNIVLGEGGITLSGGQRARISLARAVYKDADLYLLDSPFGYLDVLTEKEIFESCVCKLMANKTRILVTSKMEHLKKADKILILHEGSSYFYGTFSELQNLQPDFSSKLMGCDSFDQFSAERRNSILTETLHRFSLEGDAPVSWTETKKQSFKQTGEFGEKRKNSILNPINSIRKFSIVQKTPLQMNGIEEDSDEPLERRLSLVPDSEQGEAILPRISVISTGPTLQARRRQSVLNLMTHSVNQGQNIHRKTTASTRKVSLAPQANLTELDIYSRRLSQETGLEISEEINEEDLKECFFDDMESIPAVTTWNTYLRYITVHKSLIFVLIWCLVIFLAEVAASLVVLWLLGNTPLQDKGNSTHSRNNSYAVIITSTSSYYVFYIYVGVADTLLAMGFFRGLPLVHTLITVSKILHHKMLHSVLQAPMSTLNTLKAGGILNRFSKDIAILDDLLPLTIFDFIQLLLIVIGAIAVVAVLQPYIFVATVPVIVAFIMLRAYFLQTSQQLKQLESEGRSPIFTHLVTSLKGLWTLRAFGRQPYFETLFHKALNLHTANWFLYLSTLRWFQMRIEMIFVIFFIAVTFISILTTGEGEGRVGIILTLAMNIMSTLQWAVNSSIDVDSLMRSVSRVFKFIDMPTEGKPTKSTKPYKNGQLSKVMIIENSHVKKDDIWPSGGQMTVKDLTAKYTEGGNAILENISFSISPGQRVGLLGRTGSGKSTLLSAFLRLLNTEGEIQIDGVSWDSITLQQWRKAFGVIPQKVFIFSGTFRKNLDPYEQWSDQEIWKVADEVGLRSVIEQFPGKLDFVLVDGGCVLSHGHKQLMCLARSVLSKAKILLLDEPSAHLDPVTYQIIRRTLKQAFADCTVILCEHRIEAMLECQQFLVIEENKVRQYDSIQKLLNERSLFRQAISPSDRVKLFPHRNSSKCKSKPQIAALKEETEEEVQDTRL
# Experimental: Bronchial epithelial cells isolated from transplanted lungs from wild-type (WT), CF patients homozygous for the F508del mutation or heterozygous G551D/F508del or R334W/F508del patients, were obtained from McGill University (Montreal, Canada) and University of North Carolina (Chapel Hill, NC, United States). Cells were isolated from lungs obtained from donors undergoing a planned transplantation. These primary cells were cultured directly on type IV collagen-coated polycarbonate Transwell supports with a diameter of 6.5 mm and pore size of 0.4 μm (Costar, #3397) for 18–25 days in air liquid (ali) interface essentially as previously described ([Fulcher et al., 2005]). Trans-epithelial clamp circuit (TECC) recordings were performed using the TECC instrument developed and sold by EP Design (Bertem, Belgium). During the recording, the epithelial cells were bathed in a NaCl-Ringer solution (120 mM NaCl, 20 mM HEPES, 1.2 mM CaCl2, 1.2 mM MgCl2, 0.8 mM KH2PO4, 0.8 mM K2HPO4, 5 mM glucose, pH 7.4) on both the basolateral (640 μl) and the apical side (160 μl) and kept at 37°C. Apical amiloride was used to inhibit the endogenous ENaC currents (100 μM) while forskolin (10 μM) was applied on both the apical and basolateral sides to stimulate CFTR. All triggers and compounds used during the experiment were first dissolved in DMSO to a 1000 X concentrated solution, just prior to treatment a 10 X stock was prepared in the NaCl-Ringer solution which was used for addition of the correct concentration of trigger and or compound during the experiment. When using the F508del CFTR mutant, VX809 (3 μM) or GLPG2222 (1 μM) corrector was added on the basolateral side for 24 h to partially rescue F508del CFTR before adding the potentiator. For chronic experiments, the potentiator range was also added to the cells for 24 h and reapplied in the NaCl-ringer buffer prior to the electrophysiological recording. Measurements were done during a 20 min timeframe with recordings every 2 min. The transepithelial potential (PD) and transepithelial resistance (Rt) were measured in an open circuit and transformed to Ieq using Ohm’s law. The increase in Ieq (Δ Ieq) was used as a measure for the increased CFTR activity. EC50 values were generated by measuring impact of different concentrations of compound on Ieq in primary cells. For this purpose each transwell was treated with a different compound concentration. CFTRInh-172 was used at 10 μM to assess the specificity of the response. […] Data was fitted using a 3 parameter hill function of the form Response = Bottom + (Top-Bottom)/(1 + 10ˆ((LogEC50-concentration))) to determine EC50 values.
# [2] = patients carrying the G551D mutation; ref Ramsey et al., 2011; cited from earlier work
# [3] = biological target: T2, G551D CFTR (Homo sapiens, UniProt P13569, G551D); details: ref Jih and Hwang (2013); cited from earlier work
# T2 construct: expressed in transfected cells; host or cells: HEK293, transient (jetPEI)
# T2 sequence (P13569 whole entry G551D): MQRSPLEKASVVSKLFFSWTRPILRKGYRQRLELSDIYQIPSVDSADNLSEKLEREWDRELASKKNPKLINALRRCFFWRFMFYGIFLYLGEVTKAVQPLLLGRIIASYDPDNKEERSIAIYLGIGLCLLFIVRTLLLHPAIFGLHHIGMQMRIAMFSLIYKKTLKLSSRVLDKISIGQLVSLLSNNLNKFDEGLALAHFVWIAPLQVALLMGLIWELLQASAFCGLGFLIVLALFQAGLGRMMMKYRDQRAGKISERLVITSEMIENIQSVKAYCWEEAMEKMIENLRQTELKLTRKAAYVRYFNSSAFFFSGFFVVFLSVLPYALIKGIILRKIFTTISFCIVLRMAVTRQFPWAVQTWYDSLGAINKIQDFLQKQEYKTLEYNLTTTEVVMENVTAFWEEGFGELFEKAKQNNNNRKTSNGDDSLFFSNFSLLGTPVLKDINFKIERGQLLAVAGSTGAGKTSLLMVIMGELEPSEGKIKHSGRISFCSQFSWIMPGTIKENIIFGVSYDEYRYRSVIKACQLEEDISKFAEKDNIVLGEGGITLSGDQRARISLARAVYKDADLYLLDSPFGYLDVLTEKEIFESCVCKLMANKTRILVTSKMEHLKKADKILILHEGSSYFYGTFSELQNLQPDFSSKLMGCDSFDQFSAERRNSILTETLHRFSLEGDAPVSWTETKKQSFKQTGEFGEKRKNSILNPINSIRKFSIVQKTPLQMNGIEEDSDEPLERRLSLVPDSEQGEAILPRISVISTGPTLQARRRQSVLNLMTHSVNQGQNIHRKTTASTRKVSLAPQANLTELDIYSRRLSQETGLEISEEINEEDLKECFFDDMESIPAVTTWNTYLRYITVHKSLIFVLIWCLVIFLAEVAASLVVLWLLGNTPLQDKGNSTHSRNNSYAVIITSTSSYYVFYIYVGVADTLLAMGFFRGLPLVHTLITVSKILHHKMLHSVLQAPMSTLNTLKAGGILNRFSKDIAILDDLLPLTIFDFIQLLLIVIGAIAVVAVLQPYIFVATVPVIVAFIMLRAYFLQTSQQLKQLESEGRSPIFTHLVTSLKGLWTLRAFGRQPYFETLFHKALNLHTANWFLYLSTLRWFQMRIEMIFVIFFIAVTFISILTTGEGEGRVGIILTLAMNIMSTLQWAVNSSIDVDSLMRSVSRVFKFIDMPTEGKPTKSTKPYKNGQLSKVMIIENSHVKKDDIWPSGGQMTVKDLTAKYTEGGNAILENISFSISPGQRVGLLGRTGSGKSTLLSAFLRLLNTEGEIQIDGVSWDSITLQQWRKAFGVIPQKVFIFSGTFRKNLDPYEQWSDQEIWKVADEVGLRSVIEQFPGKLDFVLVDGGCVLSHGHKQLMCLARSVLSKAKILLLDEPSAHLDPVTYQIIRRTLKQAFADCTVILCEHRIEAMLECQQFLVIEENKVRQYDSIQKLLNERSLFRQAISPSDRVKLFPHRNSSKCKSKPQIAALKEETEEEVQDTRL
# [4] = biological target: T1, F508del CFTR; test: Cell surface expression assay, HRP-tagged F508del CFTR in CFBe41o- cells; format: cell-based; parameters: expressed in transfected cells; details: 24 h co-incubation with 10 μM VX809, concentration range of potentiator
# Experimental: CFBE41o^- TetON cells expressing HRP tagged F508del-CFTR ([Veit et al., 2012]) were seeded at a density of 4,000 cells per well in white 384-well plates (Greiner). Medium containing 500 ng/ml doxycycline was used to induce expression of the F508del-CFTR–HRP construct. After 3 days, cells were treated with corrector and/or potentiator compounds and transferred to an incubator at 33°C. On day 4, cells were washed 5 times with PBS containing Ca^2+ and Mg^2+ using a Bio-Tek plate washer and incubated with a chemiluminescent HRP substrate (SuperSignal West Pico Chemiluminescent Substrate, Thermo Scientific) for 15 min. Chemiluminescence was measured using an Envision plate reader (Perkin Elmer).
# [5] = biological target: T1, F508del CFTR; test: YFP halide assay, CFBe41o- cells, low temperature rescued F508del CFTR; format: cell-based; details: 27°C 24 h, 10 μM forskolin, read-out: EC50, potentiation of low temperature rescued F508del CFTR
# Experimental: CFBe41o- cells were plated in black 384-well microplates at a density of 1,500 cells per well. After 24 h, cells were transduced with adenoviruses containing F508del CFTR and YFP (H148Q/I152L/) F47L using a multiplicity of infection of 30 infectious units per cell for each adenovirus. The next day, for the low temperature corrected assay, cells were incubated at 27°C for 24 h, for the chemically corrected assay cells were treated with corrector for 24 h at 37°C. On the day of analysis, cells were washed five times with Dulbecco’s Phosphate-Buffered Saline (DPBS) containing Ca^2+ and Mg^2+ (Life Technologies) using a Microplate Washer (BioTek). Then, cells were treated with 10 μM forskolin and the desired concentration of potentiator in a volume of 30 μl and the plates were incubated at room temperature for 10 min, a timepoint optimized in previous experiments showing good window (positive control/negative control > 2) and signal to background ratio. The YFP fluorescence was recorded for 2 min, starting immediately before addition of 30 μl NaI buffer (375 mM NaI, 7.5 mM KI, 1.76 mM KH2PO4, 10.1 mM Na2HPO4, 13.75 mM glucose) to the wells, using a FDSS/μCell (Hamamatsu) fluorescence reader with a 480 nm excitation filter and a 540 nm emission filter. The capacity of potentiators to increase CFTR channel function was expressed as 1-[fluorescence 36 s after NaI addition (F)/fluorescence before NaI addition (F0)], a timepoint optimized previously, resulting in an optimal signal window. Data was normalized using the formula: normalized response = 100^∗ (absolute response – negative control response)/(VX770 response – negative response) as such, VX770 response corresponds to 100. For Dose-response experiments, data was fitted using a 4 parameter hill function of the form Response = Bottom + (Top-Bottom)/(1 + 10ˆ((LogEC50-concentration)^∗HillSlope)) to determine EC50 values.
smiles,measurement,setting,value
"CC(C)(C)c1cc(C(C)(C)C)c(NC(=O)c2c[nH]c3ccccc3c2=O)cc1O [VX770, N -(2,4-Di-tert-butyl-5-hydroxyphenyl)-4-oxo-1,4-dihydroquinoline-3-carboxamide, reference compound]",Decrease in corrected F508del CFTR channel activity in chronic versus acute setting,"[1]; 10 μM potentiator, corrected F508del/F508del HBE, 24 h",decrease in F508del CFTR channel activity
same,EC50,"[1]; VX809 3 μM 24 h, acute potentiator addition, 10 μM forskolin, read-out: EC50 on VX809 corrected F508del/F508del HBEs (TECC)",80.7 ± 21.7 nM
same,Improvement of lung function,[2],10.6%
same,Increase of macroscopic G551D CFTR current,[3],10 fold
same,Effect on cell surface expression of VX809 rescued F508del CFTR,[4],reduces the level of cell surface expressed F508del CFTR at all concentrations tested
same,EC50,[5],126 ± 10.9 nM
